{"source": "patent US20200299328A1", "about": "“POLYPEPTIDE WITH FUNCTION OF INHIBITING ABETA 42 PROTEIN AGGREGATION AND USE THEREOF, AND GENE ENCODING THE POLYPEPTIDE” (SOUTH CHINA UNIVERSITY OF TECHNOLOGY, priority 2018, published 2020)", "test_system": "Aβ42 protein aggregation in HEK-293-Aβ42-mCherry cells", "assay": "Activity experiment of inhibiting Aβ42 protein aggregation in vitro (IncuCyte Zoom live cell imaging, tetracycline induction)", "type": "cell-based", "details": "compared with model group, 72 hours after tetracycline, p<0.01 (FIG. 5)", "source_text": "In the specific embodiments, in an application process of the polypeptide with the function of inhibiting Aβ42 protein aggregation according to the present invention, a mechanism of inhibiting AD senile plaque by the polypeptide is first researched through a visual in-vitro cell model test. Specifically, an amino acid sequence of a core component of senile plaque—an Aβ42 protein (the 22nd amino acid in a sequence of 42 amino acids—glutamic acid is mutated into glycine) is stably transferred into HEK-293 cells, so that it is stably expressed in the HEK-293 cells to form a cell model of abnormal Aβ protein aggregation, and then tetracycline is added to induce the Aβ protein to form a red fluorescent protein and emit red fluorescent light for positioning and quantifying the expression of the Aβ42 protein; and then, the polypeptide with the function of inhibiting Aβ42 protein aggregation according to the present invention is added, and a HEK293 cell model transfected with an Aβ42-red fluorescent labeling gene is used for evaluation, thus proving that the polypeptide has a remarkable activity of inhibiting Aβ42 protein aggregation. […]"}
{"substance": "Pro-Pro-Lys-Asn-Trp (PPLAT) [PW-5]", "values": [{"measurement": "Aβ42 protein aggregation rate", "setting": "PW-5 high-dose group 0.5 mM, effect more significant than low-dose group", "result": "significantly reduced"}, {"measurement": "Aβ42 protein aggregation rate", "setting": "PW-5 low-dose group 0.05 mM", "result": "significantly reduced"}]}
